# Laboratory results published in US20210137953A1, “Inhibitors of Mcl-1 and Akt Binding, Pharmaceutical Compositions, and Uses in Treating Cancer” (Emory University, priority 2019, published 2021).
# “Also recorded” adds a separate entry of the source.
# Key:
# human lung cancer cells = assay: sulforhodamine B cytotoxicity screening; type: cell-based; details: sulforhodamine B assay; among the top 500 small molecules from docking
# From the text: The small molecules were ranked according to their energy scores. The top 500 small molecules based on predicted binding energies were selected for screening of cytotoxicity in human lung cancer cells by sulforhodamine B assay as described in Park et al. Novel small molecule inhibitors of Bcl-XL to treat lung cancer. Cancer Res 2013;73: 5485-96.
# GST-tagged WT Akt = biological target: T1, GST-tagged WT Akt (Homo sapiens, UniProt P31749); assay: thermal shift assay, GST-WT Akt; type: binding; details: purified GST-WT Akt, increasing concentrations
# T1 construct: made in house
# T1 sequence (P31749 whole entry): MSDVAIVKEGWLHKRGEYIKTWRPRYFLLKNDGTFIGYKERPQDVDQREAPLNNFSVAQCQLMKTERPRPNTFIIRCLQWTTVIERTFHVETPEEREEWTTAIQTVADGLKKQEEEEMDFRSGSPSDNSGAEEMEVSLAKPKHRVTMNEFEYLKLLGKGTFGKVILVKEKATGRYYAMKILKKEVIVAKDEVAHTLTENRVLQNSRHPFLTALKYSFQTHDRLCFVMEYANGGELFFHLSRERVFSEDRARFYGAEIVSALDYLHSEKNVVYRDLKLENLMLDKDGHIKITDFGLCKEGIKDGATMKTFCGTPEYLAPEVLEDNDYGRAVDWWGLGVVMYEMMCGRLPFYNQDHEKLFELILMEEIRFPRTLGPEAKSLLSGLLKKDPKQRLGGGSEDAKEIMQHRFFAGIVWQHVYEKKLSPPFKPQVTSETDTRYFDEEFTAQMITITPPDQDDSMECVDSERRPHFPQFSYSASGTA
# Procedure: (§1) To test whether PH-687 specifically binds to the PH domain in Akt, recombinant GST-tagged WT Akt, PH deletion Akt mutant (DPH), and PH domain-only proteins were generated and PH-687 compound/Akt protein binding were measured using a thermal shift assay. Thermal shift assay is a technique to study protein/small-molecule interactions that enhance protein thermal stability and increase melting temperatures as described in Jin et al. Glutamate dehydrogenase 1 signals through antioxidant glutathione peroxidase 1 to regulate redox homeostasis and tumor growth. Cancer Cell, 2015, 27:257-70. […] Because PH-687 can bind to the Mcl-1-binding site (i.e., PH domain) on Akt protein, the effect of PH-687 on Mcl-1/Akt interaction was tested.
# [1] = biological target: T2, GST-PH domain-only Akt protein (Homo sapiens, UniProt P31749); assay: thermal shift assay, PH domain-only protein; type: binding; details: purified GST-PH-mutant (PH domain-only) protein, increasing concentrations
# T2 construct: PH domain-only proteins were generated; made in house
# T2 sequence (P31749 5-108 limits assumed): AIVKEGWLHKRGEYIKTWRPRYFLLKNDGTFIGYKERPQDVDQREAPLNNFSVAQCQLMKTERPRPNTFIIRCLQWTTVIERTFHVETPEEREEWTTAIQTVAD
# Procedure: as §1
# [2] = test system: GST-DPH (PH deletion Akt mutant); assay: thermal shift assay, PH deletion Akt mutant; type: binding; details: GST-DPH protein, increasing concentrations
# Procedure: as §1
# Mcl-1/Akt complexes = biological target: T3, Mcl-1/Akt complexes (Homo sapiens, UniProt P31749); assay: Co-IP of Mcl-1/Akt interaction in H1299 cells; type: cell-based; details: increasing concentrations
# T3 construct: treatment of H1299 cells with increasing concentrations of PH-687; endogenous in cells; host or cells: H1299
# T3 sequence (P31749 whole entry, one chain of several): as the sequence (P31749 whole entry) above
# Procedure: To evaluate the mechanism by which Mcl-1 regulates Akt, coimmunoprecipitation (co-IP) experiments using Mcl-1 or Akt antibody were performed in H1299 parental versus H1299 Mcl-1^−/^− cells. […] Because Akt antibody could pull-down Mcl-1 protein only in H1299 parental, but not in H1299 Mcl-1^−/^− cells, this indicates a potential direct interaction between Mcl-1 and Akt in human lung cancer cells. To further verify this interaction, similar co-IP experiments were carried out in a cell-free system using purified recombinant Mcl-1 and Akt proteins. Consistently, Mcl-1 also directly interacted with Akt in the cell-free system. To detect the intracellular localization(s) of Akt/Mcl-1 interaction, a Duolink™ proximity ligation assay (PLA) system was employed to detect Akt/Mcl-1 interaction in H1299 cells and H460 cells according to the manufacturer's instructions. Two primary antibodies raised in different species (i.e., Mcl-1 antibody from rabbit and Akt antibody from mouse) are used to detect two unique protein targets. […] PLA signals were detected by fluorescence microscopy as discrete spots. […]
# To test whether PH-687 specifically binds to the PH domain in Akt, recombinant GST-tagged WT Akt, PH deletion Akt mutant (DPH), and PH domain-only proteins were generated and PH-687 compound/Akt protein binding were measured using a thermal shift assay. […]
# Akt = Akt activity in human lung cancer cell lines; type: cell-based
# [3] = test system: various human lung cancer cell lines (H1299, H157, H460); assay: colony formation / growth in various human lung cancer cell lines; type: cell-based
# Akt PH/KD interaction = assay: mammalian two-hybrid system (SEAP), PH/KD interaction in H1299 cells; type: cell-based, human; details: H1299 cells, 0, 0.5, 1, 2 mmol/L, 24 hours
# From the text: Because Mcl-1 can directly interact with Akt at the PH domain, experiments were designed to test whether Mcl-1 affects the intramolecular PH domain/KD interaction. GST-tagged KD, GFP-tagged PH domain, and Flag-tagged WT Mcl-1 or DPEST Mcl-1 mutant were used for co-transfection and co-IP experiments. […] To further confirm these findings, a mammalian two-hybrid system was employed to measure the PH/KD interaction. Co-transfection of Gal4BD-Akt KD and VP16AD-Akt PH along with pG5SEAP in cells drives the expression of secreted alkaline phosphatase (SEAP) when KD/PH interaction occurs. To test the effect of Mcl-1 on KD/PH interaction, the two-hybrid H1299 Mcl-1^−/^− cells were co-transfected with WT Mcl-1 or DPEST mutant Mcl-1, followed by analysis of SEAP activity. […] Because the PEST domain is required for Mcl-1/Akt binding, it is proposed that Mcl-1 disruption of intramolecular PH domain/kinase domain interactions may occur through Mcl-1/Akt binding.
# (§2) To test whether PH-687-mediated Mcl-1/Akt dissociation enhances interaction between the PH and KD domains, a mammalian two-hybrid system was employed to measure the PH/KD interaction in H1299 cells using Gal4BD-Akt KD, VP16AD-Akt PH, and pG5SEAP in the absence or presence of PH-687.
# Akt/PDK1 = biological target: T4, Akt/PDK1 (Homo sapiens, UniProt P31749); assay: interaction of Akt with PDK1 in H1299 cells; type: cell-based
# T4 construct: endogenous in cells; host or cells: H1299
# T4 sequence (P31749 whole entry): as above
# Procedure: (§3) PIP3 directly binds to the PH domain and induces a conformational change in Akt, which enables PDK1 or mTORC2 to access and phosphorylate Akt at T308 or S473. To test whether Mcl-1, similar to PIP3, may also affect the interactions between Akt and PDK1 or mTORC2, co-IP experiments using Akt antibody were performed in H1299 parental cells or H1299 Mcl-1^−/^− cells expressing WT Mcl-1, DPEST Mcl-1 mutant, or empty vector, followed by Western blot using PDK1 or mTORC2 antibody, respectively. Results reveal that knockout of Mcl-1 disrupted Akt/PDK1 and Akt/mTORC2 interactions, and expression of WT Mcl-1, but not PEST deletion mutant, restored Akt/PDK1 and Akt/mTORC2 interactions.
# as §2
# Akt/mTORC2 = biological target: T5, Akt/mTORC2 (Homo sapiens, UniProt P31749); assay: interaction of Akt with mTORC2 in H1299 cells; type: cell-based
# T5 construct: endogenous in cells; host or cells: H1299
# T5 sequence (P31749 whole entry): as above
# Procedure: as §3, §2
# H1299 parental cells = assay: colony formation assay, H1299 parental cells; type: cell-based, human; details: H1299 cells, 0, 0.1, 0.5, 1 mmol/L
# Procedure: (§4) To further test whether PH-687 specifically functions through targeting Mcl-1/AKT signaling in lung cancer cells, H1299 parental cells, H1299 Mcl-1^−/^− cells and H1299 cells expressing Akt siRNA were treated with increasing concentrations of PH-687 (0, 0.1, 0.5, 1 mmol/L), followed by colony formation assay.
# H1299 Mcl-1−/− cells = assay: colony formation assay, H1299 Mcl-1−/− cells; type: cell-based, human; details: knockout of Mcl-1 by CRISPR/cas9, vs H1299 parental; 0, 0.1, 0.5, 1 mmol/L
# Procedure: as §4
# [4] = test system: H1299 cells expressing Akt siRNA; assay: colony formation assay, H1299 cells expressing Akt siRNA; type: cell-based, human; details: knockdown of Akt by Akt siRNA, vs H1299 parental; 0, 0.1, 0.5, 1 mmol/L
# Procedure: as §4
# Akt phosphorylation = assay: growth factor-induced Akt phosphorylation in H1299 cells; type: cell-based, human; details: 2 mmol/L, 1 hour, EGF 100 ng/mL, IGF 10 ng/mL or insulin 1 mg/mL
# Procedure: To test whether Mcl-1 or PH-687 also affects Akt activation by growth factors such as EGF, IGF, or insulin, first, H1299 parental and H1299 Mcl-1^−/^− cells were treated with EGF (100 ng/mL), IGF (10 ng/mL), or insulin (1 mg/mL) for 1 hour, followed by analysis of Akt phosphorylation. […] Knockout of Mcl-1 blocked EGF, IGF, and insulin-induced Akt phosphorylation at S473 and T308. Second, H1299 cells were treated with EGF (100 ng/mL), IGF (10 ng/mL), or insulin (1 mg/mL) in the absence or presence of PH-687 (2 mmol/L) for 1 hour, followed by analysis of Akt phosphorylation. Results reveal that PH-687 inhibited EGF, IGF, and insulin-induced Akt phosphorylation at S473 and T308.
# NSCLC (H1299) xenografts = assay: H1299 lung cancer xenografts in nude mice; type: in vivo
# Procedure: Nu/Nu nude mice with H1299 lung cancer xenografts were treated with increasing doses of PH-687 for 4 weeks. Tumor volume was measured once every 4 days. After 28 days, mice were sacrificed and the tumors were removed, photographed, and analyzed.
# (§5) To test the antitumor potency of PH-687 in vivo, nude mice with NSCLC (i.e., H1299) xenografts were treated with increasing doses (0, 30, 60, and 90 mg/kg/day) of PH-687 for 4 weeks.
# (§6) Six-week-old male nude mice were purchased from Harlan and housed under pathogen-free conditions. H1299 cells were subcutaneously implanted into mouse flanks. Tumor bearing mice were randomly grouped and tumors were allowed to grow to an average volume of 100 mm3 before treatment. Mice were treated with PH-687 through intraperitoneal injection (i.p) at the indicated dose. During treatment, tumor volumes were measured by caliper once every 4 days.
# Paraffin-embedded human lung tissue samples from 208 patients with NSCLC were obtained. Tissue microarray was constructed with replicate cores of tumor and adjacent normal lung. After deparaffinization, rehydration, inactivation of endogenous peroxidase, and antigen retrieval, IHC staining was performed. The following primary antibody dilutions were used: anti-Mcl-1 (1:300), anti-pAKT S473 (1:100), anti-pAKT T308 (1:100), anti-Ki67 (1:500), and anti-active caspase-3 (1:100). Ki67-positive cells and active caspase-3-positive cells in tumor tissues were scored. Percentage of positive cells was determined from three separate fields in each of three independent tumor samples. The semiquantitative evaluation of IHC staining of Mcl-1 and pAkt was carried out using an immunoscore based on both the percentage of stained cells and staining intensity.
# [5] = toxicity in xenograft-bearing mice (body weight, blood chemistry, blood counts); type: in vivo; details: 30-90 mg/kg/day
# Procedure: as §5, §6
# [6] = harvested tumor tissues after treatment
smiles,measurement,setting,value
"N=c1ccn2c(n1)OC1C(OP(=O)(O)O)C(CO)OC12 (stereo not shown) [PH-687, 2-(hydroxymethyl)-6-imino-2,3,3a,9a-tetrahydro-6H-furo[2′,3′:4,5]oxazolo[3,2-a]pyrimidin-3-yl dihydrogen phosphate]",activity against human lung cancer cells (cytotoxicity),human lung cancer cells,most potent activity
same,Tm (melting temperature),GST-tagged WT Akt,Dose-dependent increases in Tm
same,Tm (melting temperature),[1],Dose-dependent increases in Tm
same,Tm (melting temperature),[2],no significant increase in Tm
same,dissociation of Mcl-1/Akt complexes,Mcl-1/Akt complexes,dose-dependent dissociation of Mcl-1/Akt complexes
same,Akt activity,Akt,significantly reduced Akt activity
same,cell growth,[3],growth inhibition
same,PH/KD interaction,Akt PH/KD interaction,increased PH/KD interaction in a dose-dependent manner
same,interaction of Akt with PDK1,Akt/PDK1,dose dependent decreased interaction
same,interaction of Akt with mTORC2,Akt/mTORC2,dose dependent decreased interaction
same,cell growth (colony formation),H1299 parental cells,growth inhibition in a dose-dependent manner
same,inhibitory effect on cell growth (colony formation),H1299 Mcl-1−/− cells,reduced the inhibitory effect
same,inhibitory effect on cell growth (colony formation),[4],reduced the inhibitory effect
same,"EGF, IGF, and insulin-induced Akt phosphorylation at S473",Akt phosphorylation,inhibited
same,"EGF, IGF, and insulin-induced Akt phosphorylation at T308",Akt phosphorylation,inhibited
same,Ki67 level in tumor tissues (IHC),NSCLC (H1299) xenografts; [6],decreased levels
same,apoptosis (active caspase-3) in tumor tissues (IHC),NSCLC (H1299) xenografts; [6],increased apoptosis
same,pAkt (S473) level in tumor tissues (IHC),NSCLC (H1299) xenografts; [6],decreased levels
same,pAkt (T308) level in tumor tissues (IHC),NSCLC (H1299) xenografts; [6],decreased levels
same,tumor growth (tumor volume),"NSCLC (H1299) xenografts; nude mice, 0, 30, 60, 90 mg/kg/day i.p., 4 weeks",suppressed tumor growth in a dose-dependent manner; also recorded: suppresses tumor growth
same,increase in alanine aminotransferase,[5],no significant increase
same,increase in aspartate aminotransferase,[5],no significant increase
same,increase in blood urea nitrogen,[5],no significant increase
same,reduction in PLT,[5],no significant
same,reduction in RBC,[5],no significant
same,reduction in WBC,[5],no significant
same,reduction in hemoglobin,[5],no significant
same,weight loss,[5],no significant weight loss
